The record followed here is patent US20260022143A1, “Cyclic Peptide Inhibitors of IL-23” (JANSSEN PHARMACEUTICA NV, priority 2022, published 2026).

SMILES strings stand for the structures. Starred links: 1 amine or outer side, 2 acyl side, 3 side chain; linkers in the order of their positions; H or OH if unused. Positions of bridges follow the written chain, without caps; N, C: chain ends. Non-standard residues stand in square brackets, D forms with d. Residues, ends and D or L forms follow the SMILES beside them. *: point of attachment. Trp(7-(3-AcNH-Ph)) = CC(=O)Nc1cccc(-c2cccc3c(C[C@H](N)C(=O)O)c[nH]c23)c1; Me3N+(CH2)2O(CH2)2O(CH2)2CO = C[N+](C)(C)CCOCCOCCC(=O)*; CH2CH2OCH2CH2OCH2CH2NMe3+ = C[N+](C)(C)CCOCCOCC*; Trp(7-Me) = Cc1cccc2c(C[C@H](N)C(=O)O)c[nH]c12; dLys(Me3) = C[N+](C)(C)CCCC[C@@H](N)C(=O)O; Decanoyl(3,6,9-trioxa) = COCCOCCOCC(=O)*; 3Pal(5-Me) = Cc1cncc(C[C@H](N)C(=O)O)c1; Dab(NMeAc) = CC(=O)N(C)CC[C@H](N)C(=O)O; 2Nal = N[C@@H](Cc1ccc2ccccc2c1)C(=O)O; AEF = NCCOc1ccc(C[C@H](N)C(=O)O)cc1; X24 = C[N+](C)(CCN[*:1])CC(=O)[*:2]; 3Pal = N[C@@H](Cc1cccnc1)C(=O)O; Lys(Me) = CNCCCC[C@H](N)C(=O)O; X69 = CN(CCOCC[N+](C)(C)C)CC*; Pen = CC(C)(S)[C@H](N)C(=O)O; Thp = NC1(C(=O)O)CCOCC1; X3 = C[N+](C)(C)CCCCC*; Sar = CNCC(=O)O

A short description of this data set: Exposed Polar Surface Area (EPSA). In kind it is physicochemical. The conditions noted are these: SFC on Chirex 3014 column; sample 1 mM DMSO stock; read-out: EPSA. The essentials: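 Polarity descriptor in Å² derived from retention time using 8 calibration standards re-run every 20 compounds. Duplicate injections of 1 mM DMSO stock; linear 5–60% modifier gradient (20 mM ammonium formate in MeOH) with CO2 at 4 mL/min, 35 °C, on a Chirex 3014 column.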
As to `CC(=O)N[C@@H]1C(=O)N[C@@H](CC(N)=O)C(=O)N[C@@H]([C@@H](C)O)C(=O)N[C@@H](Cc2c[nH]c3c(C)cccc23)C(=O)N[C@@H](CCCCN(C)C(C)=O)C(=O)N[C@H](C(=O)N[C@@H](Cc2ccc(OCCN)cc2)C(=O)N[C@@H](Cc2ccc3ccccc3c2)C(=O)NC2(C(=O)N[C@@H](CCCCN(C)C(C)=O)C(=O)N[C@@H](CC(N)=O)C(=O)N[C@@H](Cc3cccnc3)C(=O)N(C)CC(N)=O)CCOCC2)C(C)(C)SSC1(C)C` [compound 280] (Ac-[Pen]NT[Trp(7-Me)][Lys(Me)](Ac)[Pen][AEF][2Nal][Thp][Lys(Me)](Ac)N[3Pal][Sar]-NH2; disulfide 1-6 (inferred)), the EPSA amounted to 167 A^2.
Next, `CC(=O)N[C@H](CCCC[N+](C)(C)C)C(=O)N[C@@H]1C(=O)N[C@@H](CC(=O)N(C)C)C(=O)N[C@@H]([C@@H](C)O)C(=O)N[C@@H](Cc2c[nH]c3c(C)cccc23)C(=O)N[C@@H](CCCCN(C)C(C)=O)C(=O)N[C@H](C(=O)N[C@@H](Cc2ccc(OCCOCCOCC[N+](C)(C)C)cc2)C(=O)N[C@@H](Cc2ccc3ccccc3c2)C(=O)NC2(C(=O)N[C@@H](CCCCN(C)C(C)=O)C(=O)N[C@@H](CC(N)=O)C(=O)N[C@@H](Cc3cccnc3)C(=O)N(C)CC(=O)N(C)C)CCOCC2)C(C)(C)SSC1(C)C` [compound 216, MeCO-k(Me)3-Pen(3)-N(N(Me)2)-T-7MeW-K(NMeAc)-Pen(3)-APEG3F-2Nal-THP-K(NMeAc)-N-3Pya-Sar-CON(Me)2] (Ac-[dLys(Me3)][Pen]D(NMe2)T[Trp(7-Me)][Lys(Me)](Ac)[Pen]Y(CH2CH2OCH2CH2OCH2CH2NMe3+)[2Nal][Thp][Lys(Me)](Ac)N[3Pal][Sar]-NMe2; disulfide 2-7): 141 A^2; `CC(=O)NCCCC[C@@H]1NC(=O)[C@H](Cc2c[nH]c3c(-c4cccc(NC(C)=O)c4)cccc23)NC(=O)[C@H]([C@@H](C)O)NC(=O)[C@H](CC(N)=O)NC(=O)[C@@H](NC(=O)[C@@H](CCCC[N+](C)(C)C)NC(C)=O)C(C)(C)SSC(C)(C)[C@@H](C(=O)N[C@@H](Cc2ccc(OCCCCC[N+](C)(C)C)cc2)C(=O)N[C@@H](Cc2ccc3ccccc3c2)C(=O)NC2(C(=O)N[C@@H](CCC(=O)O)C(=O)N[C@@H](CC(N)=O)C(=O)N[C@@H](Cc3cncc(C)c3)C(=O)N(C)CC(N)=O)CCOCC2)NC1=O` [compound 513, MeCO-k(Me)3-Pen(3)-N-T-7(3NAcPh)W-K(Ac)-Pen(3)-TMAPF-2Nal-THP-E-N-5MePyridinAla-Sar-CONH2] (Ac-[dLys(Me3)][Pen]NT[Trp(7-(3-AcNH-Ph))]K(Ac)[Pen]Y(X3)[2Nal][Thp]EN[3Pal(5-Me)][Sar]-NH2; disulfide 2-7): 224 A^2; `CCCCCCCCCCCCCC(=O)N[C@@H](CCC(=O)NCCOCCOCC(=O)NCCOCCOCC(=O)NCCCC[C@@H]1NC(=O)[C@H](Cc2c[nH]c3c(C)cccc23)NC(=O)[C@H]([C@@H](C)O)NC(=O)[C@H](CC(=O)N(C)C)NC(=O)[C@@H](NC(=O)[C@H](COCCOCC[N+](C)(C)C)NC(=O)COCCOCCNC(=O)COCCOCCNC(=O)CC[C@H](NC(=O)CCCCCCCCCCCCC)C(=O)O)C(C)(C)SSC(C)(C)[C@@H](C(=O)N[C@@H](Cc2ccc(OCCOCCOCC[N+](C)(C)C)cc2)C(=O)N[C@@H](Cc2ccc3ccccc3c2)C(=O)NC2(C(=O)N[C@@H](CCCCN(C)C(C)=O)C(=O)N[C@@H](CC(N)=O)C(=O)N[C@@H](Cc3cccnc3)C(=O)N(C)CC(=O)N(C)C)CCOCC2)NC1=O)C(=O)O` (relative stereo) [compound 369, C14gEPEG2PEG2CO-APEG2Ser(S*)-Pen(3)-N(N(Me)2)-T-7MeW-K(PEG2PEG2gEC14)-Pen(3)-APEG3F-2Nal-THP-K(NMeAc)-N-3Pya-Sar-CON(Me)2]: 184 A^2.
Next, `COCCOCCOCC(=O)NCC[N+](C)(C)CC(=O)N[C@@H]1C(=O)N[C@@H](CC(=O)N(C)C)C(=O)N[C@@H]([C@@H](C)O)C(=O)N[C@@H](Cc2c[nH]c3c(C)cccc23)C(=O)N[C@@H](CCCCN(C)C(C)=O)C(=O)N[C@H](C(=O)N[C@@H](Cc2ccc(OCCOCCOCC[N+](C)(C)C)cc2)C(=O)N[C@@H](Cc2ccc3ccccc3c2)C(=O)NC2(C(=O)N[C@@H](CCN(C)C(C)=O)C(=O)N[C@@H](CC(N)=O)C(=O)N[C@@H](Cc3cccnc3)C(=O)N(C)CC(=O)N(C)C)CCOCC2)C(C)(C)SSC1(C)C` [compound 197, mPEG3CO-SP6-Pen(3)-N(N(Me)2)-T-7MeW-K(NMeAc)-Pen(3)-APEG3F-2Nal-THP-Dab(NMeAc)-N-3Pya-Sar-CON(Me)2] ({Decanoyl(3,6,9-trioxa)}-[X24][Pen]D(NMe2)T[Trp(7-Me)][Lys(Me)](Ac)[Pen]Y(CH2CH2OCH2CH2OCH2CH2NMe3+)[2Nal][Thp][Dab(NMeAc)]N[3Pal][Sar]-NMe2; disulfide 2-7): 137 A^2; `CC(=O)N(C)CCCC[C@@H]1NC(=O)[C@H](Cc2c[nH]c3c(C)cccc23)NC(=O)[C@H]([C@@H](C)O)NC(=O)[C@H](CC(=O)N(C)C)NC(=O)[C@@H](NC(=O)CCOCCOCC[N+](C)(C)C)C(C)(C)SSC(C)(C)[C@@H](C(=O)N[C@@H](Cc2ccc(OCCN(C)CCOCC[N+](C)(C)C)cc2)C(=O)N[C@@H](Cc2ccc3ccccc3c2)C(=O)NC2(C(=O)N[C@@H](CCCCN(C)C(C)=O)C(=O)N[C@@H](CC(N)=O)C(=O)N[C@@H](Cc3cccnc3)C(=O)N(C)CC(=O)N(C)C)CCOCC2)NC1=O` [compound 237, cPEG3aCO-Pen(3)-N(N(Me)2)-T-7MeW-K(NMeAc)-Pen(3)-AEF(NMePEG2a)-2Nal-THP-K(NMeAc)-N-3Pya-Sar-CON(Me)2] ({Me3N+(CH2)2O(CH2)2O(CH2)2CO}-[Pen]D(NMe2)T[Trp(7-Me)][Lys(Me)](Ac)[Pen]Y(X69)[2Nal][Thp][Lys(Me)](Ac)N[3Pal][Sar]-NMe2; disulfide 1-6): 140 A^2.
The same measure for `CC(=O)N(C)CCCC[C@@H]1NC(=O)[C@H](Cc2c[nH]c3c(C)cccc23)NC(=O)[C@H](CC(C)C)NC(=O)[C@H](CC(=O)N(C)C)NC(=O)[C@@H](NC(=O)CCOCCOCC[N+](C)(C)C)C(C)(C)SSC(C)(C)[C@@H](C(=O)N[C@@H](Cc2ccc(OCCCCC[N+](C)(C)C)cc2)C(=O)N[C@@H](Cc2ccc3ccccc3c2)C(=O)NC2(C(=O)N[C@@H](CCCCN(C)C(C)=O)C(=O)N[C@@H](CC(N)=O)C(=O)N[C@@H](Cc3cccnc3)C(=O)N(C)CC(=O)N(C)C)CCOCC2)NC1=O` [compound 493, cPEG3aCO-Pen(3)-N(N(Me)2)-L-7MeW-K(NMeAc)-Pen(3)-TMAPF-2Nal-THP-K(NMeAc)-N-3Pya-Sar-CON(Me)2] ({Me3N+(CH2)2O(CH2)2O(CH2)2CO}-[Pen]D(NMe2)L[Trp(7-Me)][Lys(Me)](Ac)[Pen]Y(X3)[2Nal][Thp][Lys(Me)](Ac)N[3Pal][Sar]-NMe2; disulfide 1-6): 132 A^2.
